Test results taken from US11021444B2, “Antiviral compounds” (priority 2013, dated 2021).
Where two headings read alike, the source gives them in different places.

Legend:
[1] = test system: Respiratory Syncytial Virus (RSV) long strain; experiment: microbe, parasite or virus in culture; format: cell-based; conditions: human respiratory syncytial virus, Tables A and B list compounds by EC50 band
Procedure: (§1) CPE reduction assays are performed as described by Sidwell and Huffman et al., Appl. Microbiol. (1971) 22(5):797-801 with slight modifications. HEp-2 cells (ATCC #, CCL-23) are seeded at a density of 1,500 cells/30 μl/well into the 384-well cell plate(s) (Corning #3701) one day prior to the assay. Compounds are added into 384-well cell plates by Labcyte POD 810 Plate Assembler system. Each of the test compounds is provided to duplicate wells of a 384-well cell plate at final concentrations starting from 100 μM or 1 μM using 1/3 stepwise dilutions for 9 points. Quick-thaw Respiratory Syncytial Virus (RSV) long strain (ATCC #VR-26) stock in a 37° C. water bath. Place on ice until ready to use. Viruses are diluted to the concentration of 100 TCID50/30 μL with medium and 30 μl diluted RSV are added into related wells of 384-well cell plates. For each plate, sixteen wells are set aside as uninfected, untreated cell controls (CC), and nine wells per test plate receive virus only as a control for virus replication (VC). The final DMSO concentration of all wells is 1%. Place the plates at 37° C., 5% CO2 for 5 days.
After 5 days incubation, observe the CPE of cells in all wells. […] Six μl of cell counting kit-8 reagent (CCK-8, Dojindo Molecular Technologies Inc., CK04-20) are added to each well, which allows colorimetric assays to determine the number of viable cells through the dehydrogenase activity detection. After 3-4 hour incubation, the absorbance of each well is measured with a spectrophotometric plate reader at 450 nm wavelength, using a 630 nm filter as background according to manufacturer's instruction.

[2] = Cytotoxicity Determination (CCK-8, without addition of virus); format: cell-based; conditions: human, 50% cytotoxicity concentration (CC50)
Procedure: as §1
In order to determine the compound cytotoxicity, in parallel, each of the compounds is applied to duplicate wells in a 384-well cell plate at serial final concentrations starting from 100 μM using 1/2 stepwise dilutions for 7 points without addition of virus. Incubate the cells at 37° C., 5% CO2 for 5 days. Add 6 μL CCK-8 into each well and incubate in a CO2 incubator at 37° C. for 3-4 hours.

recombinant RSV complex = recombinant RSV complex (Human respiratory syncytial virus A, UniProt P28887); experiment: RSV Polymerase Inhibition Assay; format: biochemical
Procedure: Standard RSV polymerase assays were conducted in the presence of 10 nM recombinant RSV complex in a reaction buffer containing Tris-HCl pH7.5, 6 mM MgCl2, and other additives and substrates including RNA oligonucleotides and radionucleotides. Standard reactions were incubated in 96-well plate format for 2 h at 30° C., in the presence of increasing concentration of inhibitor. The reaction was stopped with 90 μL of 0.1M EDTA, and the reaction product was transferred to a “reading” 96-well plate. After washing of the plate, radiolabeled RNA products were detected according to standard procedures with a Trilux Topcount scintillation counter.

[3] = HEp-2, 120 h, read-out: 50% effective concentration (EC50), HEp-2 cells infected with RSV long strain, 5 days, CCK-8 readout
[4] = 120 h, read-out: 50% effective concentration (EC50), HEp-2 cells infected with RSV long strain, 5 days, CCK-8 readout

Chain of recombinant RSV complex (P28887 whole entry): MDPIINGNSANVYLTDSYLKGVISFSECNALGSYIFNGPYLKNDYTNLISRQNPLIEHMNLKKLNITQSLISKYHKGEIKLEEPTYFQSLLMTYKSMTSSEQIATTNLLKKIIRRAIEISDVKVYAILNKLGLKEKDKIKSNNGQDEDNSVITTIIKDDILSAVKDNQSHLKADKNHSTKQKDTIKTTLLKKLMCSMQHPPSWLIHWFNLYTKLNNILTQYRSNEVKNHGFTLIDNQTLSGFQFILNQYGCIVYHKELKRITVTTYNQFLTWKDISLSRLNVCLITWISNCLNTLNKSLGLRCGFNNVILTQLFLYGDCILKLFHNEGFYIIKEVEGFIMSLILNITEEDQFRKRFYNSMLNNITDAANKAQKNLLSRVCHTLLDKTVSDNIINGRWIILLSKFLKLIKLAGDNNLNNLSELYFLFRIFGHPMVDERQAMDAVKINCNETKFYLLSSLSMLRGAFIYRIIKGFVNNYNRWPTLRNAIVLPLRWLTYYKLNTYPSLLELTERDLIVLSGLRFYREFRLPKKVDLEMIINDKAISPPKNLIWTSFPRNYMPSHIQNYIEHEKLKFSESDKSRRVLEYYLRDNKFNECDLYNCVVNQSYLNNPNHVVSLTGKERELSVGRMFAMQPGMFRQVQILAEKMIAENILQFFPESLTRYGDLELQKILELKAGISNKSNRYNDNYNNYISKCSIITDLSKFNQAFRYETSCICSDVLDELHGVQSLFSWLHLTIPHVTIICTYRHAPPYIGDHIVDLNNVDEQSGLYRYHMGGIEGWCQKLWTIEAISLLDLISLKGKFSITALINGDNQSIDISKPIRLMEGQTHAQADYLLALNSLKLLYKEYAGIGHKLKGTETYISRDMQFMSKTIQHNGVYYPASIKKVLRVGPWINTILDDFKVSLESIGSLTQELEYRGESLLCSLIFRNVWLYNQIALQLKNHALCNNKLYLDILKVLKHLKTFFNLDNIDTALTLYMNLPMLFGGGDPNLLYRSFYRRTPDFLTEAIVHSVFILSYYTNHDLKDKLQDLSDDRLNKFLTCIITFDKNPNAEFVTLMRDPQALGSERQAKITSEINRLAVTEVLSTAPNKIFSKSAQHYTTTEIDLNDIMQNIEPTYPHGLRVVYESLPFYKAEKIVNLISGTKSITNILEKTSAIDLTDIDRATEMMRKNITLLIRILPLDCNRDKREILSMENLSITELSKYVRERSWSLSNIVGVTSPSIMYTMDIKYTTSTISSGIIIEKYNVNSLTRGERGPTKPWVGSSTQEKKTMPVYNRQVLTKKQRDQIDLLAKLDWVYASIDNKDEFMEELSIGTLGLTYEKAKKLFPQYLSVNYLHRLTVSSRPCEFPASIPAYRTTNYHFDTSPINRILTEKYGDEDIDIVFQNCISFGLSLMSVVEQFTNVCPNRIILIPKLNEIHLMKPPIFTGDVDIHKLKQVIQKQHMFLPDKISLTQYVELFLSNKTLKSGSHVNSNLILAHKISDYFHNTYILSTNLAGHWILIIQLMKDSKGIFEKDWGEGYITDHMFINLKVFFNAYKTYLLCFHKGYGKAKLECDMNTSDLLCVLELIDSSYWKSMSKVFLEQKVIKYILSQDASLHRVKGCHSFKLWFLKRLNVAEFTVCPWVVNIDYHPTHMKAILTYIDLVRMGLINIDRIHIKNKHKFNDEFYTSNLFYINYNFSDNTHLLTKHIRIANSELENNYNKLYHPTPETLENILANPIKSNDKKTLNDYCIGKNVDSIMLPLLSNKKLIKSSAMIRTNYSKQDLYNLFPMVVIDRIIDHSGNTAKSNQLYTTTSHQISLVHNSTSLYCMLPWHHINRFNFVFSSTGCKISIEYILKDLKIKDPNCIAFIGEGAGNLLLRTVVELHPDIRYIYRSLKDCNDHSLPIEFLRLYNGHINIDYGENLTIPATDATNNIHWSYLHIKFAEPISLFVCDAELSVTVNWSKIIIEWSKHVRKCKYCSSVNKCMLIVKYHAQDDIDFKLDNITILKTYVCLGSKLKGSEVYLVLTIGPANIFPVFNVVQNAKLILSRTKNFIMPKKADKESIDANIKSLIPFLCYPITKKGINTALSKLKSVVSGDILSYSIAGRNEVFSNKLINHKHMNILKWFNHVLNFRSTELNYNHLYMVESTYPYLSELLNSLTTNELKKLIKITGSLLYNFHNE
Chain of recombinant RSV complex (P03421 whole entry, further chain): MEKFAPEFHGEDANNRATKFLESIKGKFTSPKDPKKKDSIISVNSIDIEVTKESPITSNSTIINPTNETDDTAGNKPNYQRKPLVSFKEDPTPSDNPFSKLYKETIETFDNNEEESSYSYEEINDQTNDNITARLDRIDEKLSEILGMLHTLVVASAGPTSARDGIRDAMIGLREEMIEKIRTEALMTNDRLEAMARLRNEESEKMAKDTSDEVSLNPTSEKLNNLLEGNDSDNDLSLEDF

Structure (SMILES) | EC50 [1, 3] | CC50 at 5 days [2] | IC50 (recombinant RSV complex) | EC50 [1, 4]
COc1cc(C(=O)NCC(O)(c2ccc(OC)c(-c3ccc(F)c(Cl)c3)n2)C(F)(F)F)ccc1OCC(N)=O (single isomer, unassigned) [Compound 238] | < 1 µM | 10 to 100 µM | < 1 µM | –
CNCC(O)(CNC(=O)c1ccc(OCCO)c(OC)c1)c1ccc(OC)c(-c2ccc(F)c(Cl)c2)n1 (stereo not drawn) [Compound 177] | 1 to 50 µM | > 100 µM | < 10 µM | –
COc1cc(C(=O)NCC(O)(c2cc(CO)cc(-c3ccc(F)c(Cl)c3)n2)C(F)(F)F)ccc1OC1CC1 (stereo not drawn) [Compound 465] | < 1 µM | 10 to 100 µM | < 1 µM | –
COc1cc(C(=O)NCC(O)(c2cc3c(c(-c4ccc(F)c(Cl)c4)n2)OCC3(C)N[S+]([O-])C(C)(C)C)C(F)(F)F)ccc1OC1CC1 (stereo not drawn) [Compound 482] | < 1 µM | 10 to 100 µM | < 1 µM | –
CC(C)(N)c1cc(-c2ccc(F)c(Cl)c2)nc(C(O)(CNC(=O)c2cn3cccnc3n2)C(F)(F)F)c1 (stereo not drawn) [Compound 477] | 1 to 50 µM | 10 to 100 µM | < 10 µM | –
COc1cc(C(=O)NCC(C)(O)c2cc3c(c(-c4ccc(F)c(Cl)c4)n2)NCC3)ccc1OCCF (single isomer, unassigned) [Compound 294] | < 1 µM | > 100 µM | < 10 µM | –
COc1cc(C(=O)NCC(O)(c2ccc(OC)c(-c3ccc(F)c(Cl)c3)n2)C(F)(F)F)ccc1OC1CCCC1 (stereo not drawn) [Compound 236] | 1 to 50 µM | > 100 µM | < 1 µM | –
COc1cc(C(=O)NCC(=O)c2cc3c(C)coc3c(-c3ccc(F)c(Cl)c3)n2)ccc1OC1CC1 [Compound 474] | < 1 µM | > 100 µM | < 1 µM | –
COc1ccc(C(=O)NCC(C)(O)c2cccc(-c3csc4c(F)cccc34)n2)cc1OC (stereo not drawn) [Compound 142] | < 1 µM | 10 to 100 µM | < 1 µM | –
COc1ccc(C(=O)NCC(C)(O)c2ccc(OC)c(-c3ccc(F)c(Cl)c3)n2)cc1 (stereo not drawn) [Compound 174] | 1 to 50 µM | 10 to 100 µM | < 10 µM | –
COc1cc(C(=O)NCC(C)(C)c2ccc(OC)c(-c3ccc(F)c(Cl)c3)n2)ccc1OCCO [Compound 368] | < 1 µM | 10 to 100 µM | < 100 µM | –
COc1cc(C(=O)NCC(O)(c2ccc(OC)c(-c3ccc(F)cc3)n2)C(F)(F)F)ccc1OCCO (stereo not drawn) [Compound 619] | < 1 µM | 10 to 100 µM | < 1 µM | –
COc1cc(C(=O)NCC(F)(F)c2ccc(OC)c(-c3ccc(F)c(Cl)c3)n2)ccc1OCCO [Compound 150] | – | > 100 µM | < 10 µM | 1 to 50 µM
COc1ccc(C(O)(CNC(=O)c2ccc3ncoc3c2)C(F)(F)F)nc1-c1ccc(F)c(Cl)c1 (stereo not drawn) [Compound 266] | 1 to 50 µM | 10 to 100 µM | < 1 µM | –
CC(C)(N)c1cc(-c2ccc(F)cc2)nc(C(O)(CNC(=O)c2ccc3c(c2)CNC(=O)N3)C(F)(F)F)c1 (stereo not drawn) [Compound 639] | 1 to 50 µM | 10 to 100 µM | < 1 µM | –
COc1cc(C(=O)NCC(O)(c2cc3c(c(-c4ccc(F)nc4)n2)OCC3(C)N)C(F)(F)F)ccc1OCCO (stereo not drawn) [Compound 492] | 1 to 50 µM | > 100 µM | < 10 µM | –
COc1cc(C(=O)NC[C@](O)(c2cc3c(c(-c4ccc(F)cc4)n2)OC[C@@]3(C)N)C(F)(F)F)ccc1OC[C@@H](C)O [Compound 632] | < 1 µM | 10 to 100 µM | < 1 µM | –
COc1cc(C(=O)NCC(O)(c2ccc(OC)c(-c3ccc(F)c(Cl)c3)n2)C(F)(F)F)ccc1OC1CCCC1=O (stereo not drawn) [Compound 257] | < 1 µM | 10 to 100 µM | < 1 µM | –
COc1cc(C(=O)NCC(=O)c2cc3c(c(-c4ccc(F)c(Cl)c4)n2)OCC3C)ccc1OCCO (stereo not drawn) [Compound 305] | < 1 µM | 10 to 100 µM | < 1 µM | –
COc1cc(C(=O)NCC(O)(c2cc(C(C)(C)NC(C)=O)cc(-c3ccc(F)cc3)n2)C(F)(F)F)ccc1OC[C@@H](C)O (stereo partly drawn) [Compound 620] | – | > 100 µM | < 1 µM | < 1 µM

Structure (SMILES) | EC50 [1, 3] | CC50 at 5 days [2] | IC50 (recombinant RSV complex) | EC50 [1, 4]
Cc1ncc(C(=O)NCC(O)(c2cc(C(C)(C)N)cc(-c3ccc(F)cc3)n2)C(F)(F)F)[nH]1 (stereo not drawn) [Compound 609] | 1 to 50 µM | 10 to 100 µM | < 10 µM | –
COCc1ccc(C(=O)NCC(C)(O)c2ccc(OC)c(-c3ccc(F)c(Cl)c3)n2)cc1OC (stereo not drawn) [Compound 114] | 1 to 50 µM | 10 to 100 µM | < 10 µM | –
CC1(N)COc2c1cc(C(O)(CNC(=O)c1ccc(OCCO)c(F)c1)C(F)(F)F)nc2-c1ccc(F)cc1 (stereo not drawn) [Compound 476] | < 1 µM | 10 to 100 µM | < 1 µM | –
COc1cc(C(=O)NC[C@](O)(c2cc3c(c(-c4ccc(F)cc4)n2)OCC3(N)CO)C(F)(F)F)ccc1OC1CC1 (stereo partly drawn) [Compound 654] | < 1 µM | 10 to 100 µM | < 1 µM | –
COc1cc(C(=O)NCC(=O)c2cc3c(c(-c4ccc(F)c(Cl)c4)n2)OCC3(C)O)ccc1OC1CC1 (stereo not drawn) [Compound 473] | < 1 µM | 10 to 100 µM | < 1 µM | –
COc1cc(C(=O)NCC(F)c2ccc(OC)c(-c3ccc(F)c(Cl)c3)n2)ccc1OCCO (stereo not drawn) [Compound 149] | 1 to 50 µM | 10 to 100 µM | < 10 µM | –
COc1cc(C(=O)NCC(F)(CF)c2ccc(OC)c(-c3ccc(F)c(Cl)c3)n2)ccc1OCCO (stereo not drawn) [Compound 435] | < 1 µM | 10 to 100 µM | < 1 µM | –
COc1cc(C(=O)NCC(C)(O)c2ccc(OC)c(-c3ccc(F)c(Br)c3)n2)ccc1OCCO (stereo not drawn) [Compound 167] | < 1 µM | 10 to 100 µM | < 1 µM | –
COc1cc(C(=O)NC[C@@](O)(c2cc3c(c(-c4ccc(C#N)cc4)n2)OC[C@]3(C)N)C(F)(F)F)ccc1OCCO [Compound 604b] | 1 to 50 µM | > 100 µM | < 10 µM | –
CC(C)(N)c1cc(-c2ccc(F)cc2)nc(C(O)(CNC(=O)c2ccc3oc(=O)[nH]c3c2)C(F)(F)F)c1 (stereo not drawn) [Compound 610] | – | 10 to 100 µM | < 1 µM | < 1 µM
COc1cc(C(=O)NCC(C)(O)c2cc3c(c(-c4ccc(F)c(Cl)c4)n2)NCC3)ccc1OCCF (stereo not drawn) [Compound 286] | 1 to 50 µM | 10 to 100 µM | < 10 µM | –
COc1ccc(C(O)(CNC(=O)c2ccc3ncn(C)c3c2)C(F)(F)F)nc1-c1ccc(F)c(Cl)c1 (stereo not drawn) [Compound 264] | 1 to 50 µM | 10 to 100 µM | < 1 µM | –
COc1cc(C(=O)NCC(O)(c2cc3c(c(-c4ccc(F)cc4)n2)OCC3(C)N)C(F)(F)F)ccc1OC1CC(O)C1 (stereo not drawn) [Compound 597] | < 1 µM | 10 to 100 µM | < 10 µM | –
COc1cc(C(=O)NCC(C)(O)c2ncc(OC)c(-c3ccc(F)c(Cl)c3)n2)ccc1OCCO (stereo not drawn) [Compound 109] | 1 to 50 µM | > 100 µM | < 10 µM | –
COc1cc(C(=O)NCC(O)(c2ccc(OC)c(-c3ccc(F)c(Cl)c3)n2)C(F)(F)F)ccc1OC1CCOC1 (stereo not drawn) [Compound 235] | < 1 µM | 10 to 100 µM | < 1 µM | –
COc1cc(C(=O)NCC(=O)c2cc3c(c(-c4ccc(F)c(Cl)c4)n2)OCC3)ccc1OCCF [Compound 135] | < 1 µM | > 100 µM | < 100 µM | –
COc1cc(C(=O)NCC(O)(c2cc(C(N)=O)cc(-c3ccc(F)c(Cl)c3)n2)C(F)(F)F)ccc1OC1CC1 (stereo not drawn) [Compound 464] | < 1 µM | 10 to 100 µM | < 1 µM | –
COc1cc(C(=O)NCC(C)(O)c2cc3c(c(-c4ccc(F)c(Cl)c4)n2)OCC3(C)O)ccc1OC1CC1 (stereo not drawn) [Compound 475] | < 1 µM | 10 to 100 µM | < 1 µM | –
COc1cc(C(=O)NCC(O)(CO)c2cc3c(c(-c4ccc(F)c(Cl)c4)n2)OCC3(C)C)cc2cccnc12 (stereo not drawn) [Compound 221] | < 1 µM | 10 to 100 µM | < 1 µM | –
